± gives the expanded uncertainty stated by the source.
Test: xn = mol fraction of the nth substance listed
Conditions: 100 kPa, Liquid; for mass density: Vibrating tube method; for viscosity: Capillary tube (Ostwald / Ubbelohde) method

**Q.** What does the source list for `CC1COC(=O)O1` (configuration not stated) [4-methyl-1,3-dioxolan-2-one] + CN1CCCC1=O?
**A.** mass density (293.15 K, x2 = 0): 1204.81 ± 1.6 kg/m3; mass density (293.15 K, x2 = 0.0523): 1194.07 ± 1.7 kg/m3; mass density (293.15 K, x2 = 0.1021): 1184.1 ± 1.7 kg/m3; mass density (293.15 K, x2 = 0.1995): 1165.18 ± 1.6 kg/m3; mass density (293.15 K, x2 = 0.2987): 1146.67 ± 1.6 kg/m3; mass density (293.15 K, x2 = 0.4003): 1128.44 ± 1.6 kg/m3; mass density (293.15 K, x2 = 0.5164): 1108.38 ± 1.6 kg/m3; mass density (293.15 K, x2 = 0.6011): 1094.3 ± 1.6 kg/m3; mass density (293.15 K, x2 = 0.6989): 1078.57 ± 1.6 kg/m3; mass density (293.15 K, x2 = 0.7989): 1062.97 ± 1.6 kg/m3; mass density (293.15 K, x2 = 0.9003): 1047.58 ± 1.6 kg/m3; mass density (293.15 K, x2 = 0.9506): 1040.04 ± 1.6 kg/m3; viscosity (298.15 K, x2 = 0): 2.52 ± 0.052 mPa·s; viscosity (298.15 K, x2 = 0.114): 2.391 ± 0.05 mPa·s; viscosity (298.15 K, x2 = 0.2013): 2.294 ± 0.048 mPa·s; viscosity (298.15 K, x2 = 0.3347): 2.158 ± 0.045 mPa·s; viscosity (298.15 K, x2 = 0.389): 2.103 ± 0.044 mPa·s; viscosity (298.15 K, x2 = 0.5): 2.003 ± 0.042 mPa·s; viscosity (298.15 K, x2 = 0.597): 1.926 ± 0.041 mPa·s; viscosity (298.15 K, x2 = 0.709): 1.845 ± 0.039 mPa·s; viscosity (298.15 K, x2 = 0.7891): 1.796 ± 0.038 mPa·s; viscosity (298.15 K, x2 = 0.8985): 1.732 ± 0.037 mPa·s; mass density (298.15 K, x2 = 0): 1199.02 ± 1.6 kg/m3; mass density (298.15 K, x2 = 0.0523): 1188.38 ± 1.7 kg/m3; mass density (298.15 K, x2 = 0.1021): 1178.51 ± 1.6 kg/m3; mass density (298.15 K, x2 = 0.1995): 1159.73 ± 1.6 kg/m3; mass density (298.15 K, x2 = 0.2987): 1141.4 ± 1.6 kg/m3; mass density (298.15 K, x2 = 0.4003): 1123.3 ± 1.6 kg/m3; mass density (298.15 K, x2 = 0.5164): 1103.36 ± 1.6 kg/m3; mass density (298.15 K, x2 = 0.6011): 1089.39 ± 1.6 kg/m3; mass density (298.15 K, x2 = 0.6989): 1073.78 ± 1.6 kg/m3; mass density (298.15 K, x2 = 0.7989): 1058.3 ± 1.6 kg/m3; mass density (298.15 K, x2 = 0.9003): 1043 ± 1.6 kg/m3; mass density (298.15 K, x2 = 0.9506): 1035.5 ± 1.6 kg/m3; viscosity (303.15 K, x2 = 0): 2.27 ± 0.047 mPa·s; viscosity (303.15 K, x2 = 0.114): 2.157 ± 0.045 mPa·s; viscosity (303.15 K, x2 = 0.2013): 2.076 ± 0.043 mPa·s; viscosity (303.15 K, x2 = 0.3347): 1.957 ± 0.041 mPa·s; viscosity (303.15 K, x2 = 0.389): 1.908 ± 0.04 mPa·s; viscosity (303.15 K, x2 = 0.5): 1.821 ± 0.038 mPa·s; viscosity (303.15 K, x2 = 0.597): 1.754 ± 0.037 mPa·s; viscosity (303.15 K, x2 = 0.709): 1.685 ± 0.036 mPa·s; viscosity (303.15 K, x2 = 0.7891): 1.641 ± 0.035 mPa·s; viscosity (303.15 K, x2 = 0.8985): 1.585 ± 0.034 mPa·s; mass density (303.15 K, x2 = 0): 1194 ± 1.6 kg/m3; mass density (303.15 K, x2 = 0.0523): 1183.42 ± 1.7 kg/m3; mass density (303.15 K, x2 = 0.1021): 1173.58 ± 1.6 kg/m3; mass density (303.15 K, x2 = 0.1995): 1154.87 ± 1.6 kg/m3; mass density (303.15 K, x2 = 0.2987): 1136.58 ± 1.6 kg/m3; mass density (303.15 K, x2 = 0.4003): 1118.52 ± 1.6 kg/m3; mass density (303.15 K, x2 = 0.5164): 1098.63 ± 1.6 kg/m3; mass density (303.15 K, x2 = 0.6011): 1084.68 ± 1.6 kg/m3; mass density (303.15 K, x2 = 0.6989): 1069.12 ± 1.6 kg/m3; mass density (303.15 K, x2 = 0.7989): 1053.68 ± 1.6 kg/m3; mass density (303.15 K, x2 = 0.9003): 1038.41 ± 1.6 kg/m3; mass density (303.15 K, x2 = 0.9506): 1030.92 ± 1.6 kg/m3; viscosity (308.15 K, x2 = 0): 2.08 ± 0.043 mPa·s; viscosity (308.15 K, x2 = 0.114): 1.988 ± 0.042 mPa·s; viscosity (308.15 K, x2 = 0.2013): 1.916 ± 0.04 mPa·s; viscosity (308.15 K, x2 = 0.3347): 1.81 ± 0.038 mPa·s; viscosity (308.15 K, x2 = 0.389): 1.767 ± 0.037 mPa·s; viscosity (308.15 K, x2 = 0.5): 1.688 ± 0.036 mPa·s; viscosity (308.15 K, x2 = 0.597): 1.628 ± 0.034 mPa·s; viscosity (308.15 K, x2 = 0.709): 1.568 ± 0.033 mPa·s; viscosity (308.15 K, x2 = 0.7891): 1.527 ± 0.032 mPa·s; viscosity (308.15 K, x2 = 0.8985): 1.475 ± 0.031 mPa·s; mass density (308.15 K, x2 = 0): 1188.57 ± 1.6 kg/m3; mass density (308.15 K, x2 = 0.0523): 1178.1 ± 1.6 kg/m3; mass density (308.15 K, x2 = 0.1021): 1168.35 ± 1.6 kg/m3; mass density (308.15 K, x2 = 0.1995): 1149.78 ± 1.6 kg/m3; mass density (308.15 K, x2 = 0.2987): 1131.63 ± 1.6 kg/m3; mass density (308.15 K, x2 = 0.4003): 1113.71 ± 1.6 kg/m3

Source: the NIST ThermoML archive (doi:10.1016/j.jct.2015.08.013)
